Results: patent US4578489A (priority 1982, dated 1986)
Like-named read-outs stand apart in the source and are kept apart here.

Experiments:
Proteus vulgaris = test: Minimum inhibitory concentration against bacteria, strain A; type: cell-based; details: 24 hours at 30° C.; tested at 100 and 300 mg/liter
Procedure: (§1) Overnight cultures, grown in Caso peptone bouillon (Merck) of the various strains of bacteria: (A) Proteus vulgaris, (B) Pseudomonas aeruginosa, (C) Enterobacter aerogenes, (D) Serratia marcencens, (E) Alcaligenes denitrificans and (F) Bacillus subtilis are each diluted in a ratio of 1/1000 in saline solution. Sufficient of the suspensions is put into Caso peptone bouillon to dilute the bacteria again in the ratio of 1/1000. Each of the compounds listed in Table 1 is then added in amounts of 100 and 300 mg/liter. After being incubated for 24 hours at 30° C. in a shaking waterbath, the turbidity of the samples is evaluated.

Pseudomonas aeruginosa = test: Minimum inhibitory concentration against bacteria, strain B; type: cell-based; details: 24 hours at 30° C.; tested at 100 and 300 mg/liter
Procedure: as §1

Enterobacter aerogenes = test: Minimum inhibitory concentration against bacteria, strain C; type: cell-based; details: 24 hours at 30° C.; tested at 100 and 300 mg/liter
Procedure: as §1

Serratia marcencens = test: Minimum inhibitory concentration against bacteria, strain D; type: cell-based; details: 24 hours at 30° C.; tested at 100 and 300 mg/liter
Procedure: as §1

[1] = test system: Alcaligenes denitrificans; test: Minimum inhibitory concentration against bacteria, strain E; type: cell-based; details: 24 hours at 30° C.; tested at 100 and 300 mg/liter
Procedure: as §1

Bacillus subtilis = test: Minimum inhibitory concentration against bacteria, strain F; type: cell-based; details: 24 hours at 30° C.; tested at 100 and 300 mg/liter
Procedure: as §1

Aspergillus niger = test: Minimum inhibitory concentration against fungi, agar incorporation test, strain K; type: cell-based; details: malt extract/agar
Procedure: (§2) The invention is carried out using the known agar incorporation test in the following fungi:
(§3) in a malt extract/agar (Merck). Inhibition is effected by adding sufficient of each of the various compounds to give final concentrations in the agar of 2, 5, 10, 50 and 100 mg/liter. The concentrations (mg/liters) required to inhibit the growth of the fungi (starting from traces of fungi added dropwise) are illustrated in Table 3.

Aspergillus phoenicis = test: Minimum inhibitory concentration against fungi, agar incorporation test, strain L; type: cell-based; details: malt extract/agar
Procedure: as §2
(L) Aspergillus phoenicis
as §3

Penicillium funiculosum = test: Minimum inhibitory concentration against fungi, agar incorporation test, strain M; type: cell-based; details: malt extract/agar
Procedure: as §2
(M) Penicillium funiculosum
as §3

Alternaria alternata = test: Minimum inhibitory concentration against fungi, agar incorporation test, strain N; type: cell-based; details: malt extract/agar
Procedure: as §2, §3

[2] = test system: Cladosporium cladosporioides; test: Minimum inhibitory concentration against fungi, agar incorporation test, strain O; type: cell-based; details: malt extract/agar
Procedure: as §2
(O) Cladosporium cladosporioides
as §3

Candida albicans = test: Minimum inhibitory concentration against fungi, agar incorporation test, strain P; type: cell-based; details: malt extract/agar
Procedure: as §2, §3

Endomyces geotrichum = test: Minimum inhibitory concentration against fungi, agar incorporation test, strain Q; type: cell-based; details: malt extract/agar
Procedure: as §2, §3

Aureobasidium pullulans = test: Minimum inhibitory concentration against fungi, agar incorporation test, strain R; type: cell-based; details: malt extract/agar
Procedure: as §2
(R) Aureobasidium pullulans
as §3

Chaetomium globosum = test: Minimum inhibitory concentration against fungi, agar incorporation test, strain S; type: cell-based; details: malt extract/agar
Procedure: as §2, §3

Chlorella vulgaris = test: Action against algae: Chlorella vulgaris; type: cell-based; design: key: --: no growth on the agar, 3 ppm have destroyed the algae in 6 hours; details: 3 mg/liter; for Growth on the agar (algae-destroying action): 6 hours exposure, 14 days incubation; for Growth in the medium (growth inhibition): 14 days
Procedure: Cultures of Chlorella vulgaris which had been grown for 14 days in algae nutrient media are diluted in the ratio 1/200 in the algae nutrient medium. Each of the compounds listed in Table 1 is then added in such an amount as to give a final concentration of 3 mg/liter. After incubating for 6 hours, 10 μl of each culture are withdrawn and added dropwise to algae/agar in order to determine the destructive action. After the cultures have incubated for 14 days under illumination (14 hours of light and 10 hours of darkness, alternately), the growth in the algae medium (determination of growth inhibition) and on the algae/agar (determination of algae-destroying action) is assessed visually.

[3] = test system: mixed culture of bacteria; type: cell-based; design: key: +: growth, no destruction; (+): growth less than that of control (>10 colonies), slight destruction; (-): slight growth (1-10 colonies); -: no growth, destruction
Artemia salina = test: Action against Artemia salina nauplii; type: in vivo; design: key: 0: no change; 1: slight change; 1-2: animals are attacked; 2: animals are strongly attacked; 2-3: animals are nearly all dead; 3: animals are all dead
Procedure: The eggs, which are available commercially, are caused to hatch by vigorous aeration. When 2-3 days old, the nauplii are exposed to the products at various concentrations (concentrations tested: 2.5; 1; 0.5 and 0.25 mg/liter) in synthetic seawater, and are observed over a prolonged period of time.

Compound: C14 H29 (CH3)2NCH2CHOHCH2 OH / Tributyldichloro [Example 21]
- MIC against bacteria, strain A (Proteus vulgaris): 100 mg/L
- MIC against bacteria, strain B (Pseudomonas aeruginosa): 100 mg/L
- MIC against bacteria, strain C (Enterobacter aerogenes): 100 mg/L
- MIC against bacteria, strain D (Serratia marcencens): 100 mg/L
- MIC against bacteria, strain E [1]: 100 mg/L
- MIC against bacteria, strain F (Bacillus subtilis): 100 mg/L
- MIC against fungi, strain K (Aspergillus niger): ≤ 5 mg/L
- MIC against fungi, strain L (Aspergillus phoenicis): ≤ 5 mg/L
- MIC against fungi, strain M (Penicillium funiculosum): ≤ 5 mg/L
- MIC against fungi, strain N (Alternaria alternata): ≤ 5 mg/L
- MIC against fungi, strain O [2]: ≤ 5 mg/L
- MIC against fungi, strain P (Candida albicans): ≤ 5 mg/L
- MIC against fungi, strain Q (Endomyces geotrichum): ≤ 5 mg/L
- MIC against fungi, strain R (Aureobasidium pullulans): ≤ 5 mg/L
- MIC against fungi, strain S (Chaetomium globosum): ≤ 5 mg/L
- Growth on the agar (algae-destroying action) (Chlorella vulgaris): --
- Growth in the medium (growth inhibition) (Chlorella vulgaris): --

Compound: CCCCCCCCCCCCCC[N+](CCO)(CCO)Cc1ccccc1.CCC[CH2][Sn-]([Cl])([Cl])([CH2]CCC)[CH2]CCC [Example 24, Di-hydroxyethyl-benzyl-tetradecyl / Tributyldichloro]
- MIC against bacteria, strain A (Proteus vulgaris): 100 mg/L
- MIC against bacteria, strain B (Pseudomonas aeruginosa): 100 mg/L
- MIC against bacteria, strain C (Enterobacter aerogenes): 100 mg/L
- MIC against bacteria, strain D (Serratia marcencens): 100 mg/L
- MIC against bacteria, strain E [1]: 100 mg/L
- MIC against bacteria, strain F (Bacillus subtilis): 100 mg/L
- Growth (destruction of a mixed culture of bacteria) ([3]; 5 mg/l, culture diluted 1/1000 in Tyrode): +
- Growth (destruction of a mixed culture of bacteria) ([3]; 5 mg/l, culture diluted 1/10000 in Tyrode): +
- Growth (destruction of a mixed culture of bacteria) ([3]; 10 mg/l, culture diluted 1/1000 in Tyrode): +
- Growth (destruction of a mixed culture of bacteria) ([3]; 10 mg/l, culture diluted 1/10000 in Tyrode): +
- Growth (destruction of a mixed culture of bacteria) ([3]; 30 mg/l, culture diluted 1/1000 in Tyrode): +
- Growth (destruction of a mixed culture of bacteria) ([3]; 30 mg/l, culture diluted 1/10000 in Tyrode): +
- Growth (destruction of a mixed culture of bacteria) ([3]; 60 mg/l, culture diluted 1/1000 in Tyrode): +
- Growth (destruction of a mixed culture of bacteria) ([3]; 60 mg/l, culture diluted 1/10000 in Tyrode): (+) (growth less than that of control (>10 colonies), slight destruction)
- Growth (destruction of a mixed culture of bacteria) ([3]; 100 mg/l, culture diluted 1/1000 in Tyrode): +
- Growth (destruction of a mixed culture of bacteria) ([3]; 100 mg/l, culture diluted 1/10000 in Tyrode): -
- MIC against fungi, strain K (Aspergillus niger): 5 mg/L
- MIC against fungi, strain L (Aspergillus phoenicis): 5 mg/L
- MIC against fungi, strain M (Penicillium funiculosum): 5 mg/L
- MIC against fungi, strain N (Alternaria alternata): 5 mg/L
- MIC against fungi, strain O [2]: 2 mg/L
- MIC against fungi, strain P (Candida albicans): 5 mg/L
- MIC against fungi, strain Q (Endomyces geotrichum): 5 mg/L
- MIC against fungi, strain R (Aureobasidium pullulans): 2 mg/L
- MIC against fungi, strain S (Chaetomium globosum): 2 mg/L
- Growth on the agar (algae-destroying action) (Chlorella vulgaris): --
- Growth in the medium (growth inhibition) (Chlorella vulgaris): --
- Action against Artemia salina (Artemia salina; 0,5 mg/l, 6 hours): 1-2
- Action against Artemia salina (Artemia salina; 0,5 mg/l, 24 hours): 2-3
- Action against Artemia salina (Artemia salina; 0,5 mg/l, 48 hours): 3
- Action against Artemia salina (Artemia salina; 0,25 mg/l, 6 hours): 0-1
- Action against Artemia salina (Artemia salina; 0,25 mg/l, 24 hours): 2
- Action against Artemia salina (Artemia salina; 0,25 mg/l, 48 hours): 2-3
- Action against Artemia salina (Artemia salina; 1 mg/l, 6 hours): 2
- Action against Artemia salina (Artemia salina; 1 mg/l, 24 hours): 3
- Action against Artemia salina (Artemia salina; 1 mg/l, 48 hours): 3
- Action against Artemia salina (Artemia salina; 2,5 mg/l, 6 hours): 2-3
- Action against Artemia salina (Artemia salina; 2,5 mg/l, 24 hours): 3
- Action against Artemia salina (Artemia salina; 2,5 mg/l, 48 hours): 3
